Three molecules from patent US20160136118A1, “COMPOSITIONS AND METHODS FOR THE TREATMENT OF A COMMON COLD AND SYMPTOMS THEREOF” (3E THERAPEUTICS CORPORATION, priority 2007, published 2016) can be followed below.

Experiment [1] concerns human patients exposed to cat allergen. As to the kind of experiment: Single-blind study, exposure to cat allergen after contrast media pretreatment (Example 11). The note with it: for Reactions on exposure to cat allergen: allergen diluted 1:10. The format is in vivo. How it is done: A single-blind study was conducted using three human patients. The patients were exposed to cat allergen at three different dilutions, 1:1,000, 1:100, and 1:10. […] Exposure to the 1:100 dilution of allergen caused a mild reaction in all of the patients. Exposure to the 1:10 dilution of allergen caused moderate reactions in all of the patients, with one patient in particular requiring some treatment for the reaction.
Patients were then pre-treated with VISIPAQUE®320 (iodixanol).
Patients were pre-treated with Iotrolan 280.
Table 1 summarizes the results and symptoms after exposure to a 1:10 dilution of cat allergen both with and without pretreatment with VISIPAQUE®320 or Iotrolan 280.

For experiment [2] the test system is unchanged. The experiment can be described thus: Single-blind study, cat allergen at three dilutions with or without pretreatment, symptoms per patient (Example 12). The format is in vivo. Also noted: Drip / Congestion / Itch: scale not given here. As to conditions: for Itch / Sneezes / Congestion / Drip: pretreatment. How it is done: A single-blind study was conducted using three human patients. Patients were pre-treated with VISIPAQUE®320 (Iodixanol) or not treated with contrast media. The patients were exposed to cat allergen at three different dilutions, 1:1000, 1:100, and 1:10. Patient symptoms of itch, drip, congestion, and sneeze were assessed.
Tables 2-4 show the results and symptoms after exposure to the indicated dilution of cat allergen both with and without pretreatment with VISIPAQUE®320.
In a similar study, patients were treated with Iotrolan 280 prior to exposure to 1:10, 1:100, or 1:1000 dilutions of cat allergen.

The subject of experiment [3] is histamine, dust allergen and grass allergen injected into patient's arm. The experiment can be described thus: Skin reaction to injected histamine, dust allergen and grass allergen after topical pretreatment of the arm (Example 13). The class given is in vivo, human. How it is done: FIG. 1 is a photograph showing the response of the patient to 6 injections. Three substances were each injected twice at two different locations, for a total of 6 injections. Each substance was injected at one location that had been pretreated with CHOLOGRAFIN® meglumine and at a second location that had not been pretreated. CHOLOGRAFIN® meglumine, which comprises 80% Iodipamide in emollient, was applied topically to part of a patient's arm. Forty five minutes after application of the CHOLOGRAFIN® meglumine, each of the three substances was injected into the two different locations on the arm, one pretreated and one that was not pretreated. The three substances were histamine, dust allergen, and grass allergen. Referring to FIG. 1, the two histamine injections went into the upper level of the arm, the two dust allergen injections went into the middle level of the arm, and the two grass allergen injections went into the lower level of the arm. FIG. 1 is a photograph showing the resulting reactions taken 2.5 hours after the injections. […] The reactions of upper, middle and lower levels of the arm on the untreated sides were rated with scores of 3+, 4+, and 4+, respectively. The reactions of the upper, middle and lower levels of the arm on the pretreated sides were rated with scores of 1+, 2+, and 2+, respectively.

Where [4] appears, read: 1:10 dilution of cat allergen, pretreatment, three human patients.
The mark [5] stands for this setting: Patient 1, 1:10 concentration cat allergen.
The mark [6] stands for this setting: Patient 1, 1:100 concentration cat allergen.
Where [7] appears, read: Patient 1, 1:1000 concentration cat allergen.
The mark [8] stands for this setting: Patient 2, 1:10 concentration cat allergen.
Setting [9] is: Patient 2, 1:100 concentration cat allergen.
Where [10] appears, read: Patient 2, 1:1000 concentration cat allergen.
[11] abbreviates: Patient 3, 1:10 concentration cat allergen.
[12] abbreviates: Patient 3, 1:100 concentration cat allergen.
Setting [13] is: Patient 3, 1:1000 concentration cat allergen.

Molecules are shown by their SMILES.

Take `CN(C(=O)CC(=O)N(C)c1c(I)c(C(=O)NC(CO)C(O)CO)c(I)c(C(=O)NC(CO)C(O)CO)c1I)c1c(I)c(C(=O)NC(CO)C(O)CO)c(I)c(C(=O)NC(CO)C(O)CO)c1I` (centres unmarked) [Iotrolan 280, Iotrolan]: in experiment [1] (1:10 dilution of cat allergen), the “Reaction to the cat allergen compared to the reaction without pretreatment” value is reported as “decreased reaction”. For the same molecule, in experiment [1] (setting [4]), the Itch is given as 0 and the Sneezes was 2×. Besides, the “Reactions on exposure to cat allergen” value in experiment [1] (after pretreatment) is “mild reactions”.

As for `CC(=O)N(CC(O)CN(C(C)=O)c1c(I)c(C(=O)NCC(O)CO)c(I)c(C(=O)NCC(O)CO)c1I)c1c(I)c(C(=O)NCC(O)CO)c(I)c(C(=O)NCC(O)CO)c1I` (centres unmarked) [Visipaque 320, iodixanol], in experiment [1] (1:10 dilution of cat allergen), the “Reaction to the cat allergen compared to the reaction without pretreatment” value is “decreased reaction”. In addition, the Sneezes was 2× in experiment [1] (setting [4]); 2× in experiment [2] (setting [5]); 0 × in experiment [2] (setting [6]); 0 × in experiment [2] (setting [7]); 0 × in experiment [2] (setting [8]); 0 × in experiment [2] (setting [9]). Moreover, the Sneezes is listed as 0 × in experiment [2] (setting [10]), 2× in experiment [2] (setting [11]), 0 × in experiment [2] (setting [12]) and 0 × in experiment [2] (setting [13]). In addition, in experiment [1] (after pretreatment), the “Reactions on exposure to cat allergen” value is “mild reactions”. The “Symptoms on exposure to cat allergen” value in experiment [1] (cat allergen diluted 1:100, after pretreatment) is “not associated with any symptoms”. For the same molecule, in experiment [2] (1:1000, 1:100, 1:10 dilutions, three human patients), the “Symptoms in response to the cat allergen compared to the reaction without pretreatment” value was “decreased symptoms”. The Itch in experiment [2] (setting [5]), in experiment [2] (setting [6]), in experiment [2] (setting [7]), in experiment [2] (setting [8]), in experiment [2] (setting [9]) and in experiment [2] (setting [10]) was 0 in each case. In addition, the Itch in experiment [2] (setting [12]) and in experiment [2] (setting [13]) was 0 throughout. Also, the Congestion in experiment [2] (setting [6]), in experiment [2] (setting [7]), in experiment [2] (setting [8]), in experiment [2] (setting [9]), in experiment [2] (setting [10]) and in experiment [2] (setting [12]) was 0 each time. For the same molecule, in experiment [2] (setting [13]), the Congestion was 0. Moreover, the Drip in experiment [2] (setting [6]), in experiment [2] (setting [7]), in experiment [2] (setting [8]), in experiment [2] (setting [9]), in experiment [2] (setting [10]) and in experiment [2] (setting [11]) was 0 each time. For the same molecule, the Drip in experiment [2] (setting [12]) was determined as 0.

Consider `O=C(CCCCC(=O)Nc1c(I)cc(I)c(C(=O)O)c1I)Nc1c(I)cc(I)c(C(=O)O)c1I` [iodipamide, Iodipamide], for which the “Reaction to histamine, dust allergen and grass allergen, pretreated versus untreated side” value in experiment [3] is given as “decreased reaction”.
